Laboratory results: ChEMBL document CHEMBL1201862, “PubChem BioAssay data set” (2004)
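Test compounds were applied to cells in 96-well plates for 48 hours at 5 doses. GI50: concentration for 50% inhibition of growth.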 Active and inactive are the calls of the source. Cut-off read from the data, not from the text of the source: active = GI50 up to about 1.1 µM and inactive = higher.

Experiments:
Test in all cases: DTP human tumour cell line panel, 48 h
[1] = system: SF-268
[2] = system: HCT-116
[3] = system: SF-539
[4] = system: BT-549
[5] = system: OVCAR-8
[6] = system: HOP-62
[7] = system: OVCAR-3
[8] = system: NCI-H460
[9] = system: RXF 393
[10] = system: SK-OV-3
[11] = system: MDA-MB-231
[12] = system: TK-10
[13] = system: SN12C
[14] = system: UACC-62
[15] = system: EKVX
[16] = system: MOLT-4
[17] = system: UO-31
[18] = system: NCI-H23
[19] = system: 786-0
[20] = system: RPMI-8226
[21] = system: SF-295
[22] = system: CCRF-CEM
[23] = system: KM12
[24] = system: NCI/ADR-RES
[25] = system: MDA-MB-435
[26] = system: HCT-15
[27] = system: OVCAR-5
[28] = system: Hs-578T
[29] = system: LOX IMVI
[30] = system: ACHN
[31] = system: SK-MEL-28
[32] = system: M14
[33] = system: NCI-H226
[34] = system: A498
[35] = system: SW-620
[36] = system: HL-60
[37] = system: U-251
[38] = system: MCF7
[39] = system: SR
[40] = system: MDA-N
[41] = system: CAKI-1
[42] = system: IGROV-1
[43] = system: SK-MEL-2
[44] = system: PC-3
[45] = system: K562
[46] = system: UACC-257
[47] = system: SNB-75
[48] = system: Malme-3M
[49] = system: SNB-19
[50] = system: HT-29
[51] = system: SK-MEL-5
[52] = system: NCI-H522
[53] = system: A549
[54] = system: OVCAR-4
[55] = system: COLO 205
[56] = system: HCC 2998
[57] = system: HOP-92

Oc1ccc2c(c1)c1c(n2CCN2CCOCC2)-c2ccccc2CC1
GI50 [1]: 30 µM (inactive) | GI50 [2]: 37.2 µM (inactive) | GI50 [3]: 21.3 µM (inactive) | GI50 [4]: 33.6 µM (inactive) | GI50 [5]: 33.6 µM (inactive) | GI50 [6]: 24.7 µM (inactive) | GI50 [7]: 22 µM (inactive) | GI50 [8]: 5.83 µM (inactive) | GI50 [9]: 29.6 µM (inactive) | GI50 [10]: 42.2 µM (inactive) | GI50 [11]: 29.9 µM (inactive) | GI50 [12]: 29.4 µM (inactive) | GI50 [13]: 41.8 µM (inactive) | GI50 [14]: 20.7 µM (inactive) | GI50 [15]: 35.5 µM (inactive) | GI50 [16]: 23.9 µM (inactive) | GI50 [17]: 23.6 µM (inactive) | GI50 [18]: 27.8 µM (inactive) | GI50 [19]: 57.8 µM (inactive) | GI50 [20]: 29.8 µM (inactive) | GI50 [21]: 36.4 µM (inactive) | GI50 [22]: 32.3 µM (inactive) | GI50 [23]: 17.8 µM (inactive) | GI50 [24]: 23.1 µM (inactive) | GI50 [25]: > 10 µM (inactive) | GI50 [26]: 25.6 µM | GI50 [27]: 24.4 µM (inactive) | GI50 [28]: 20.6 µM (inactive) | GI50 [29]: 23.6 µM (inactive) | GI50 [30]: 28.2 µM (inactive) | GI50 [31]: 18.6 µM (inactive) | GI50 [32]: 26.3 µM (inactive) | GI50 [33]: 30.7 µM (inactive) | GI50 [34]: 20.2 µM (inactive) | GI50 [35]: 30.1 µM (inactive) | GI50 [36]: 42.3 µM (inactive) | GI50 [37]: 25.6 µM (inactive) | GI50 [38]: 31.6 µM (inactive) | GI50 [39]: 24.8 µM (inactive) | GI50 [40]: 45.4 µM (inactive) | GI50 [41]: 33.7 µM (inactive) | GI50 [42]: 15.1 µM (inactive) | GI50 [43]: 23.1 µM (inactive) | GI50 [44]: 29.2 µM (inactive) | GI50 [45]: 27.9 µM (inactive) | GI50 [46]: 32.9 µM (inactive) | GI50 [47]: 28 µM (inactive) | GI50 [48]: 19.6 µM (inactive) | GI50 [49]: 24.8 µM (inactive) | GI50 [50]: 24.2 µM (inactive)

CN(C)c1ccc(-c2c(C#N)c(-c3ccccc3)n(NS(=O)(=O)c3ccccc3)c(=O)c2C#N)cc1
GI50 [1]: 56 µM (inactive) | GI50 [2]: 34.1 µM (inactive) | GI50 [3]: 33.3 µM (inactive) | GI50 [4]: 56.9 µM (inactive) | GI50 [51]: 20.4 µM (inactive) | GI50 [5]: 31.4 µM (inactive) | GI50 [6]: 38.8 µM (inactive) | GI50 [8]: 54.3 µM (inactive) | GI50 [9]: 44 µM (inactive) | GI50 [10]: 67.3 µM (inactive) | GI50 [52]: 58.3 µM (inactive) | GI50 [11]: 88.1 µM (inactive) | GI50 [12]: 79.6 µM (inactive) | GI50 [53]: 42.9 µM (inactive) | GI50 [13]: 68.9 µM (inactive) | GI50 [14]: 43.3 µM (inactive) | GI50 [15]: 67.5 µM (inactive) | GI50 [16]: 20.7 µM (inactive) | GI50 [54]: > 100 µM (inactive) | GI50 [19]: 69.5 µM (inactive) | GI50 [55]: > 100 µM (inactive) | GI50 [20]: 21.3 µM (inactive) | GI50 [21]: 41.7 µM (inactive) | GI50 [22]: 26.5 µM (inactive) | GI50 [23]: 65.6 µM (inactive) | GI50 [24]: 57.3 µM (inactive) | GI50 [25]: 71.4 µM (inactive) | GI50 [26]: 77.3 µM | GI50 [27]: > 100 µM (inactive) | GI50 [28]: 23.1 µM (inactive) | GI50 [29]: 37.4 µM (inactive) | GI50 [30]: 45.8 µM (inactive) | GI50 [31]: 70.8 µM (inactive) | GI50 [56]: 30.1 µM (inactive) | GI50 [32]: 47.4 µM (inactive) | GI50 [33]: > 100 µM (inactive) | GI50 [34]: 57 µM (inactive) | GI50 [35]: 43.3 µM (inactive) | GI50 [37]: 50.7 µM (inactive) | GI50 [38]: 40.7 µM (inactive) | GI50 [57]: 28.9 µM (inactive) | GI50 [40]: 68.1 µM (inactive) | GI50 [41]: 45.7 µM (inactive) | GI50 [42]: 40.8 µM (inactive) | GI50 [43]: 41.6 µM (inactive) | GI50 [44]: 26.9 µM (inactive) | GI50 [45]: 49.1 µM (inactive) | GI50 [46]: > 100 µM (inactive) | GI50 [47]: 48.5 µM (inactive) | GI50 [48]: 40.1 µM (inactive) | GI50 [49]: 24.8 µM (inactive) | GI50 [50]: 76.7 µM (inactive)
